From paper PMC6273978, “Synthesis and Pharmacological Evaluation of Novel Pleuromutilin Derivatives with Substituted Benzimidazole Moieties” (Molecules, 2016)
≈ marks a conversion by molar mass, not a printed value. Counter-ions that a name gives are not always drawn.

Assays:
[1] = test system: Escherichia coli (E. coli); assay: MIC testing, agar dilution method; type: cell-based; conditions: 36.5 °C, 24–48 h
Excerpt: (§1) The synthesized pleuromutilin derivatives 3 and 4a–l, with tiamulin fumarate used a as reference drug, were screened for their in vitro antibacterial activity against Escherichia coli (E. coli), Staphylococcus aureus (S. aureus), Methicillin-resistant Staphylococcus aureus (MRSA), Staphylococcus vitulinus (S. vitulinus), Staphylococcus warneri (S. warneri), and Staphylococcus haemolyticus (S. haemolyticus). The antibacterial activities are reported in Table 1 as the minimum inhibitory concentration (MIC) using the agar dilution method. The MICs of the 13 new pleuromutilin derivatives in vitro against E. coli ranged from 10 to 80 μg/mL; against S. aureus, MRSA, S. vitulinus, S. warneri, and S. haemolyticus ranged from 0.156 to 40 μg/mL, respectively.
(§2) The MIC for the synthesized compounds (3 and 4a–l) and tiamulin fumarate used as a reference drug were determined using the agar dilution method according to the National Committee for Clinical Laboratory Standards (NCCLS). Tested compounds were dissolved in 25%–40% DMSO to a solution with a concentration of 1280 µg/mL, whereas tiamulin fumarate was directly dissolved in 10 mL of distilled water at the same concentration as the tested compounds. All the solutions were then diluted twofold with sterile water to provide 11 dilutions (final concentration is 0.625 µg/mL). A 2 mL volume of the 2-fold serial dilution of each test compound/drug was incorporated into 18 mL of hot Muellere-Hinton agar medium. Inoculums, including five Gram (+), S. aureus, MRSA, S. vitulinus, S. warneri, S. haemolyticus, and one Gram (−), E. coli were prepared from blood slants and adjusted to approximately 10^5–10^6 CFU/mL with sterile saline (0.90% NaCl). A 10 µL amount of bacterial suspension was spotted onto Muellere-Hinton agar plates containing serial dilutions of the compounds/drug. The plates were incubated at 36.5 °C for 24–48 h. The same procedure was repeated in triplicate.

[2] = test system: Methicillin-resistant Staphylococcus aureus (MRSA); assay: MIC testing, agar dilution method; type: cell-based; conditions: 36.5 °C, 24–48 h
Excerpt: as §1, §2

[3] = test system: Staphylococcus aureus (S. aureus); assay: MIC testing, agar dilution method; type: cell-based; conditions: 36.5 °C, 24–48 h
Excerpt: as §1, §2

[4] = test system: Staphylococcus haemolyticus (S. haemolyticus); assay: MIC testing, agar dilution method; type: cell-based; conditions: 36.5 °C, 24–48 h
Excerpt: as §1, §2

[5] = test system: Staphylococcus vitulinus (S. vitulinus); assay: MIC testing, agar dilution method; type: cell-based; conditions: Mammaliicoccus vitulinus, 36.5 °C, 24–48 h
Excerpt: as §1, §2

[6] = test system: Staphylococcus warneri (S. warneri); assay: MIC testing, agar dilution method; type: cell-based; conditions: 36.5 °C, 24–48 h
Excerpt: as §1, §2

E. coli = assay: Oxford cup assay, zone of inhibition; type: cell-based; conditions: Escherichia coli
Method: (§3) The Oxford cup assays were carried out to evaluate the antibacterial activities against the above-mentioned six bacterial strains. The zones of inhibition for two concentrations (320 and 160 μg/mL) of the synthetic compounds and tiamulin fumarate were measured. The results of Oxford cup assay correspond with that obtained by agar dilution method (MICs) as a whole.
(§4) The procedure for Oxford cup assays was the same as that previously reported. Briefly, inoculums were prepared in 0.9% saline using McFarland standard and spread uniformly on nutrient agar plates. The 320 and 160 µg/mL of all the tested compounds were added individually into the Oxford cups that were placed at equal distances above the agar surfaces. The zone of inhibition for each concentration was measured after a 24–36 h incubation at 37 °C. The same procedure was repeated in triplicate.

MRSA [7] = assay: Oxford cup assay, zone of inhibition; type: cell-based; conditions: Staphylococcus aureus
Method: as §3, §4

S. aureus [8] = assay: Oxford cup assay, zone of inhibition; type: cell-based; conditions: Staphylococcus aureus
Method: as §3, §4

S. haemolyticus = assay: Oxford cup assay, zone of inhibition; type: cell-based; conditions: Staphylococcus haemolyticus
Method: as §3, §4

S. warneri = assay: Oxford cup assay, zone of inhibition; type: cell-based; conditions: Staphylococcus warneri
Method: as §3, §4

S. vitulinus = assay: Oxford cup assay, zone of inhibition; type: cell-based, Staphylococcus vitulinus; conditions: Mammaliicoccus vitulinus
Method: as §3, §4

MRSA [9] = assay: Inhibition of short-term bacterial growth (absorbance at 450 nm); type: cell-based; conditions: Staphylococcus aureus, 3.5 h incubation, Mueller-Hinton broth
Method: (§5) Compound 3, being the best antibacterial derivative, was chosen for further evaluation on its antibacterial effect to inhibit short-term S. aureus and MRSA growth (Figure 2). This includes the GI50 of tiamulin fumarate for S. aureus and MRSA.
(§6) The inhibition activities of test compounds were evaluated by measuring the absorbance of the bacterial suspension. In brief, inoculums were prepared from blood slants and adjusted to approximately 10^6 CFU/mL in Muellere-Hinton broth. The 0.0625, 0.125, 0.25, 0.5, 1, and 2 µM of tested compounds were prepared and added to the prepared inoculums. A sample of inoculum with no compound was used as control. The absorbance of bacterial suspension at 450 nm was measured using an UV spectrophotometer after 3.5 h of incubation, and the inhibition was calculated as 1 − (A^P/A^0), where A^p and A^0 are the absorbance of bacterial suspension in the presence and absence of compounds, respectively. The same procedure was independently repeated in triplicate.

S. aureus [10] = assay: as above; type: cell-based; conditions: Staphylococcus aureus, 3.5 h, read-out: GI50 S. aureus growth
Method: as §5, §6

Row | MIC [1] [µg/mL] | MIC [2] [µg/mL] | MIC [3] [µg/mL] | MIC [5] [µg/mL] | MIC [6] [µg/mL] | Compound | MIC [4] [µg/mL] | zone of inhibition at 160 µg/mL (E. coli) [mm] | zone of inhibition at 320 µg/mL (E. coli) [mm] | zone of inhibition at 160 µg/mL (MRSA [7]) [mm] | zone of inhibition at 320 µg/mL (MRSA [7]) [mm] | zone of inhibition at 160 µg/mL (S. aureus [8]) [mm] | zone of inhibition at 320 µg/mL (S. aureus [8]) [mm] | zone of inhibition at 160 µg/mL (S. haemolyticus) [mm] | zone of inhibition at 320 µg/mL (S. haemolyticus) [mm] | zone of inhibition at 160 µg/mL (S. warneri) [mm] | zone of inhibition at 320 µg/mL (S. warneri) [mm] | zone of inhibition at 160 µg/mL (S. vitulinus) [mm] | zone of inhibition at 320 µg/mL (S. vitulinus) [mm] | GI50 (MRSA [9]) [µM] | GI50 (S. aureus [10]) [µM]
1 | 40 (≈ 60.6 µM) | 20 (≈ 30.3 µM) | 40 (≈ 60.6 µM) | 40 (≈ 60.6 µM) | 20 (≈ 30.3 µM) | C=C[C@]1(C)C[C@@H](OC(=O)CSc2nc3ccc(NC(=O)c4ccc(OC)cc4)cc3[nH]2)[C@]2(C)[C@H](C)CC[C@]3(CCC(=O)[C@H]32)[C@@H](C)[C@@H]1O [Compound 4i, 14-O-((4-Methoxybenzamide-5-aminobenzimidazole-2-yl)thioacetyl) mutilin] | 5 (≈ 7.58 µM) | 14.2 | 17.7 | 21.3 | 25.7 | 18.6 | 21.5 | 23 | 32.9 | 18.6 | 21.8 | 17.6 | 18.2 | – | –
2 | 20 (≈ 31.5 µM) | 1.25 (≈ 1.97 µM) | 5 (≈ 7.86 µM) | 1.25 (≈ 1.97 µM) | 2.5 (≈ 3.93 µM) | C=C[C@]1(C)C[C@@H](OC(=O)CSc2nc3ccc(NC(=O)C4CCCCC4)cc3[nH]2)[C@]2(C)[C@H](C)CC[C@]3(CCC(=O)[C@H]32)[C@@H](C)[C@@H]1O [Compound 4j, 14-O-((Cyclohexanecarboxamide-5-aminobenzimidazole-2-yl)thioacetyl) mutilin] | 10 (≈ 15.7 µM) | 17.4 | 19.8 | 28 | 31.9 | 15.4 | 27.2 | 23 | 26.4 | 24.7 | 27.7 | 26 | 29.1 | – | –
3 | 20 (≈ 32.3 µM) | 1.25 (≈ 2.02 µM) | 1.25 (≈ 2.02 µM) | 1.25 (≈ 2.02 µM) | 5 (≈ 8.08 µM) | C=C[C@]1(C)C[C@@H](OC(=O)CSc2nc3ccc(NC(=O)c4ccc[nH]4)cc3[nH]2)[C@]2(C)[C@H](C)CC[C@]3(CCC(=O)[C@H]32)[C@@H](C)[C@@H]1O [Compound 4k, 14-O-(((1H-Pyrrole-2-carboxamide)-5-aminobenzimidazole-2-yl)thioacetyl) mutilin] | 1.25 (≈ 2.02 µM) | 18.5 | 20.1 | 26.5 | 30.7 | 26.6 | 28.9 | 25.5 | 29.9 | 21.2 | 25.5 | 24.7 | 27 | – | –
4 | 20 (≈ 29.9 µM) | 10 (≈ 15 µM) | 10 (≈ 15 µM) | 5 (≈ 7.48 µM) | 2.5 (≈ 3.74 µM) | C=C[C@]1(C)C[C@@H](OC(=O)CSc2nc3ccc(NC(=O)c4cc5ccccc5[nH]4)cc3[nH]2)[C@]2(C)[C@H](C)CC[C@]3(CCC(=O)[C@H]32)[C@@H](C)[C@@H]1O [Compound 4l, 14-O-(((1H-Indole-2-carboxamide)-5-aminobenzimidazole-2-yl)thioacetyl) mutilin] | 10 (≈ 15 µM) | 17.4 | 20.5 | 19.8 | 21.6 | 20.9 | 24.7 | 20.8 | 25.1 | 25.4 | 29.6 | 22.1 | 26.5 | – | –

Row | Compound | MIC [1] [µg/mL] | MIC [2] [µg/mL] | MIC [3] [µg/mL] | MIC [5] [µg/mL] | MIC [6] [µg/mL] | MIC [4] [µg/mL] | zone of inhibition at 160 µg/mL (E. coli) [mm] | zone of inhibition at 320 µg/mL (E. coli) [mm] | zone of inhibition at 160 µg/mL (MRSA [7]) [mm] | zone of inhibition at 320 µg/mL (MRSA [7]) [mm] | zone of inhibition at 160 µg/mL (S. aureus [8]) [mm] | zone of inhibition at 320 µg/mL (S. aureus [8]) [mm] | zone of inhibition at 160 µg/mL (S. haemolyticus) [mm] | zone of inhibition at 320 µg/mL (S. haemolyticus) [mm] | zone of inhibition at 160 µg/mL (S. warneri) [mm] | zone of inhibition at 320 µg/mL (S. warneri) [mm] | zone of inhibition at 160 µg/mL (S. vitulinus) [mm] | zone of inhibition at 320 µg/mL (S. vitulinus) [mm] | GI50 (MRSA [9]) [µM] | GI50 (S. aureus [10]) [µM]
5 | C=C[C@]1(C)C[C@@H](OC(=O)CSCCN(CC)CC)[C@]2(C)[C@H](C)CC[C@]3(CCC(=O)[C@H]32)[C@@H](C)[C@@H]1O [Tiamulin, tiamulin fumarate, reference compound] | 1.25 | 0.156 | 0.156 | 0.156 | 0.156 | 0.156 | 25.8 | 27.1 | 28.1 | 30.5 | 25.1 | 28.2 | 28.8 | 31.5 | 22.4 | 30.5 | 18.6 | 30.9 | 0.254 | 0.0983
